In patent US20070249590A1, “Substituted indolo[2,3-a]pyrrolo[3,4-c]carbazole compounds useful in treating kinase disorders” (priority 2005, published 2007):

Molecular target: T1, JAK3 (JH1 and JH2 domain) (Homo sapiens, UniProt P52333)
T1 sequence (P52333 521-1111 limits assumed): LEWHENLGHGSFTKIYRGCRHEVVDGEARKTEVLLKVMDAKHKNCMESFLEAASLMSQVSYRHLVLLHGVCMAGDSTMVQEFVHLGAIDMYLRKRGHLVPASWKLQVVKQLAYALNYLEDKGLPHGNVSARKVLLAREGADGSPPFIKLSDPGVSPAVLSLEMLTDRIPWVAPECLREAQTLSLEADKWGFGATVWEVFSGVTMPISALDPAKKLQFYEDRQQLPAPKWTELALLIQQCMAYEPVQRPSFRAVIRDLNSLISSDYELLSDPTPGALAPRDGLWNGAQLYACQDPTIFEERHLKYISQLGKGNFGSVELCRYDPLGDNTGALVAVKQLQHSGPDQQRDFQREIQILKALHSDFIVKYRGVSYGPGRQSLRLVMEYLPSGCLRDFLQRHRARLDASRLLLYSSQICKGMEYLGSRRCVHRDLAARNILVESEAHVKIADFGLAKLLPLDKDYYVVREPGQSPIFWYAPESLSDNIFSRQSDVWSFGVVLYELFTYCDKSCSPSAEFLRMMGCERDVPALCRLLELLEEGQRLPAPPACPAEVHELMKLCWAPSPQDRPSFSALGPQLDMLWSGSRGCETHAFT
Experiment: JAK3 Kinase Assay (ELISA of peptide substrate phosphorylation)
Assay type: biochemical
Settings: purified JAK3 enzyme, 10 μM ATP, biotinylated peptide substrate, 1 hour at room temperature
Summary of the method: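 Sf21-baculovirus-expressed JAK3 (JH1+JH2), glutathione-bead purified, with biotinylated peptide substrate (in buffer containing 10 μM ATP) in HEPES pH 7.5/MgCl2/DTT, 1 h RT. Product was captured on Neutravidin, detected with HRP anti-phosphotyrosine (PY99)/TMB, OD 450/650 nm. Triplicate 16-point half-log series from 200 μM gave IC50; otherwise % inhibition at 1 μM.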

IC50	Compound
144 nM	CC(C)NC(=O)OCC1Cn2c3ccccc3c3c4c(c5c6ccccc6n(c5c32)C1)C(=O)NC4 (stereo not shown) [Cpd 155]
547 nM	CC(=O)c1ccc(N2CCN(C(=O)OC3CCn4c5ccccc5c5c6c(c7c8ccccc8n(c7c54)C3)C(=O)NC6=O)CC2)cc1 (stereo not shown) [Cpd 59, 12,13-(2-{[4-(4-methylcarbonyl-phenyl)piperazin-1-yl]carbonyloxy}-butan-1,4-yl)-12,13-dihydro-5,7-dioxo-6H-indolo[2,3-a]pyrrolo[3,4-c]carbazole]
14 nM	CN(C)[C@@H]1CCN(C(=O)OC2CCn3c4ccccc4c4c5c(c6c7ccccc7n(c6c43)C2)C(=O)NC5=O)C1 (stereo partly drawn) [Cpd 74, 12,13-(2-{[(3R)-3-dimethylamino-pyrrolidin-1-yl]carbonyloxy}-butan-1,4-yl)-12,13-dihydro-5,7-dioxo-6H-indolo[2,3-a]pyrrolo[3,4-c]carbazole]
37 nM	O=C1NCc2c1c1c3ccccc3n3c1c1c2c2ccccc2n1CC(=C(CO)CO)C3 [Cpd 24, 12,13-(2-{[1,1-bis-(dihydroxymethyl)]methylidene}-propan-1,3-yl)-6,7,12,13-tetrahydro-5-oxo-5H-indolo[2,3-a]pyrrolo[3,4-c]carbazole]
39 nM	COc1ccc(CCNC(=O)OC2CCn3c4ccccc4c4c5c(c6c7ccccc7n(c6c43)C2)C(=O)NC5=O)cc1OC (stereo not shown) [Cpd 49, 12,13-(2-{[2-(3,4-dimethoxy-phenyl)ethyl]carbamoyloxy}-butan-1,4-yl)-12,13-dihydro-5,7-dioxo-6H-indolo[2,3-a]pyrrolo[3,4-c]carbazole]
71 nM	COc1ccccc1N1CCN(C(=O)OC2CCn3c4ccccc4c4c5c(c6c7ccccc7n(c6c43)C2)C(=O)NC5=O)CC1 (stereo not shown) [Cpd 70, 12,13-(2-{[4-(2-methoxy-phenyl)piperazin-1-yl]carbonyloxy}-butan-1,4-yl)-12,13-dihydro-5,7-dioxo-6H-indolo[2,3-a]pyrrolo[3,4-c]carbazole]
38 nM	O=C1NC(=O)c2c1c1c3ccccc3n3c1c1c2c2ccccc2n1CC(OC(=O)N1CCOCC1)CC3 (stereo not shown) [Cpd 71, 12,13-[2-(morpholin-4-yl-carbonyloxy)-butan-1,4-yl]-12,13-dihydro-5,7-dioxo-6H-indolo[2,3-a]pyrrolo[3,4-c]carbazole]
48 nM	O=C1NC(=O)c2c1c1c3ccccc3n3c1c1c2c2ccccc2n1CC(O)(C(=O)N1CCN(CCO)CC1)C(O)C3 (stereo not shown) [Cpd 130]
115 nM	O=C1NCc2c1c1c3cc([N+](=O)[O-])ccc3n3c1c1c2c2ccccc2n1CC(O)C(O)C3 (stereo not shown) [Cpd 191, 3-nitro-12,13-(2,3-dihydroxy-butan-1,4-yl)-6,7,12,13-tetrahydro-5-oxo-5H-indolo[2,3-a]pyrrolo[3,4-c]carbazole]
30 nM	O=C(NCCCn1ccnc1)OC1CCn2c3ccccc3c3c4c(c5c6ccccc6n(c5c32)C1)C(=O)NC4=O (stereo not shown) [Cpd 36, 12,13-{2-[(3-imidazol-1-yl-prop-1-yl)carbamoyloxy]-butan-1,4-yl}-12,13-dihydro-5,7-dioxo-6H-indolo[2,3-a]pyrrolo[3,4-c]carbazole]
53 nM	O=C1NC(=O)c2c1c1c3ccccc3n3c1c1c2c2ccccc2n1CC(O)(C(=O)N1CCN(CCN2CCOCC2)CC1)C(O)C3 (stereo not shown) [Cpd 134, 12,13-(2-{[4-(2-morpholin-4-yl-ethyl)piperazin-1-yl]carbonyl}-2,3-dihydroxy-butan-1,4-yl)-12,13-dihydro-5,7-dioxo-6H-indolo[2,3-a]pyrrolo[3,4-c]carbazole]
40 nM	O=C1NC(=O)c2c1c1c3ccccc3n3c1c1c2c2ccccc2n1CC(OC(=O)N1CCN(CCO)CC1)CC3 (stereo not shown) [Cpd 66, 12,13-(2-{[4-(2-hydroxy-ethyl)piperazin-1-yl]carbonyloxy}-butan-1,4-yl)-12,13-dihydro-5,7-dioxo-6H-indolo[2,3-a]pyrrolo[3,4-c]carbazole]
55 nM	CN(C)CCCN1CCN(C(=O)C2(O)Cn3c4ccccc4c4c5c(c6c7ccccc7n(c6c43)CC2O)C(=O)NC5=O)CC1 (stereo not shown) [Cpd 126, 12,13-(2-{[4-(3-dimethylamino-prop-1-yl)piperazin-1-yl]carbonyl}-2,3-dihydroxy-butan-1,4-yl)-12,13-dihydro-5,7-dioxo-6H-indolo[2,3-a]pyrrolo[3,4-c]carbazole]
22 nM	O=C1NC(=O)c2c1c1c3ccccc3n3c1c1c2c2ccccc2n1C/C=C\C3 [Cpd 1, 12,13-(but-2-en-1,4-yl)-12,13-dihydro-5,7-dioxo-6H-indolo[2,3-a]pyrrolo[3,4-c]carbazole]
47 nM	O=C(NC1CCNCC1)OC1Cn2c3ccccc3c3c4c(c5c6ccccc6n(c5c32)CC1O)C(=O)NC4=O (stereo not shown) [Cpd 113, 12,13-[2-(piperidin-4-yl-carbamoyloxy)-3-hydroxy-butan-1,4-yl]-12,13-dihydro-5,7-dioxo-6H-indolo[2,3-a]pyrrolo[3,4-c]carbazole]
64 nM	CN1CCN(C(=O)OC2Cn3c4ccccc4c4c5c(c6c7ccccc7n(c6c43)CC2O)C(=O)NC5=O)CC1 (stereo not shown) [Cpd 76, 12,13-{2-[(4-methyl-piperazin-1-yl)carbonyloxy]-3-hydroxy-butan-1,4-yl}-12,13-dihydro-5,7-dioxo-6H-indolo[2,3-a]pyrrolo[3,4-c]carbazole]
9 nM	O=C1NC(=O)c2c1c1c3ccccc3n3c1c1c2c2ccccc2n1CC(O)C(O)CC3 (stereo not shown) [Cpd 11, 12,13-(2,3-dihydroxy-pentan-1,5-yl)-12,13-dihydro-5,7-dioxo-6H-indolo[2,3-a]pyrrolo[3,4-c]carbazole]
496 nM	O=C1NC(=O)c2c1c1c3ccccc3n3c1c1c2c2ccccc2n1CC(OC(=O)N1CCN(C(c2ccccc2)c2ccccc2)CC1)CC3 (stereo not shown) [Cpd 62, 12,13-{2-[(4-benzhydryl-piperazin-1-yl)carbonyloxy]-butan-1,4-yl}-12,13-dihydro-5,7-dioxo-6H-indolo[2,3-a]pyrrolo[3,4-c]carbazole]
4360 nM	O=C1NCc2c1c1c3ccccc3n3c1c1c2c2ccccc2n1CCC(OC(=O)N1CCN(c2ccncc2)CC1)CC3 (stereo not shown) [Cpd 184, 12,13-{3-[(4-pyridin-4-yl-piperazin-1-yl)carbonyloxy]-pentan-1,5-yl}-6,7,12,13-tetrahydro-5-oxo-5H-indolo[2,3-a]pyrrolo[3,4-c]carbazole]
135 nM	CN1CCN(Cc2ccc3c(c2)c2c4c(c5c6ccccc6n6c5c2n3CC(O)C(O)C6)CNC4=O)CC1 (stereo not shown) [Cpd 193, 3-(4-methyl-piperazin-1-ylmethyl)-12,13-(2,3-dihydroxy-butan-1,4-yl)-6,7,12,13-tetrahydro-5-oxo-5H-indolo[2,3-a]pyrrolo[3,4-c]carbazole]
16 nM	COC1Cn2c3ccccc3c3c4c(c5c6ccccc6n(c5c32)CC1OC)C(=O)NC4=O (stereo not shown) [Cpd 10, 12,13-(2,3-dimethoxy-butan-1,4-yl)-12,13-dihydro-5,7-dioxo-6H-indolo[2,3-a]pyrrolo[3,4-c]carbazole]
40 nM	O=C1NCc2c1c1c3ccccc3n3c1c1c2c2ccccc2n1C/C=C\C3 [Cpd 2, 12,13-(but-2-en-1,4-yl)-6,7,12,13-tetrahydro-5-oxo-5H-indolo[2,3-a]pyrrolo[3,4-c]carbazole]
> 200 nM	O=C(NCCCN1CCCC1=O)OCC1Cn2c3ccccc3c3c4c(c5c6ccccc6n(c5c32)C1)C(=O)NC4 (stereo not shown) [Cpd 157, 12,13-(2-{[3-(2-oxo-pyrrolidin-1-yl)prop-1-yl]carbamoyloxymethyl}-propan-1,3-yl)-6,7,12,13-tetrahydro-5-oxo-5H-indolo[2,3-a]pyrrolo[3,4-c]carbazole]
> 200 nM	CC(C)NC(=O)OCC1(O)Cn2c3ccccc3c3c4c(c5c6ccccc6n(c5c32)C1)C(=O)NC4 (stereo not shown) [Cpd 135, 12,13-[2-hydroxy-2-(isopropyl-carbamoyloxymethyl)-propan-1,3-yl]-6,7,12,13-tetrahydro-5-oxo-5H-indolo[2,3-a]pyrrolo[3,4-c]carbazole]
~1000 nM	O=C(NC1CCN(Cc2ccccc2)CC1)OCC1Cn2c3ccccc3c3c4c(c5c6ccccc6n(c5c32)C1)C(=O)NC4 (stereo not shown) [Cpd 163, 12,13-{2-[(1-benzyl-piperidin-4-yl)carbamoyloxymethyl]-propan-1,3-yl}-6,7,12,13-tetrahydro-5-oxo-5H-indolo[2,3-a]pyrrolo[3,4-c]carbazole]
12 nM	O=C(NC1CCNC1)OC1CCn2c3ccccc3c3c4c(c5c6ccccc6n(c5c32)C1)C(=O)NC4=O (stereo not shown) [Cpd 72, 12,13-[2-(pyrrolidin-3-yl-carbamoyloxy)-butan-1,4-yl]-12,13-dihydro-5,7-dioxo-6H-indolo[2,3-a]pyrrolo[3,4-c]carbazole]
24 nM	O=C1NCc2c1c1c3cc(/C=C/Cn4ccnc4)ccc3n3c1c1c2c2ccccc2n1CC(O)C(O)C3 (stereo not shown) [Cpd 201]
202 nM	O=C1NCc2c1c1c3ccccc3n3c1c1c2c2ccccc2n1CC(COC(=O)N1CCN(Cc2ccc4c(c2)OCO4)CC1)C3 (stereo not shown) [Cpd 170, 12,13-(2-{[4-(benzo[1,3]dioxol-5-ylmethyl)piperazin-1-yl]carbonyloxymethyl}-propan-1,3-yl}-6,7,12,13-tetrahydro-5-oxo-5H-indolo[2,3-a]pyrrolo[3,4-c]carbazole]
